Entries after “also recorded” stand apart in the source; their conditions may differ. Square brackets hold non-standard residues; d marks the D form. Ends that are not written are not given here.
Experiments:
OT-II cells = test: In vitro activation assay of OT-II lymphocytes on nanofiber-coated wells, cytokines by flow cytometry; format: cell-based, mice; details: 6 h stimulation; for Cytokine (IFN-γ, IL-2) production by OT-II cells: nanofibers without OVA
From the text: OVA-KFE8D Nanofibers Induce Robust CD4 T Helper Cell Responses. OVA (ISQAVHAAHAEINEAGR) (SEQ ID NO: 26), is a well-characterized CD4+ T helper epitope, a portion of which is also recognized by B cells (ISQAVHAAHA) (SEQ ID NO: 58) (Robertson, et al., 2000). Therefore, immunization with OVA leads to both CD4+ T cell activation and antibody production and studies have shown that antibody responses against OVA are CD4+ T celldependent (Rudra, et al., 2012; Robertson, et al., 2000). To assess whether the enantiomeric nature of nanofibers that contributed to enhanced antibody responses also leads to differential CD4+ T helper cell functionality, we utilized transgenic mice (OT-II mice) that have CD4+ T cells (OT-II cells) whose receptors recognize OVA in the context of MHC-class II molecules.30 CD4+ T cell responses were assessed using an in vitro activation assay. Whole lymphocyte extracts (containing antigen-presenting cell, B cell, and CD4+ T cell populations) from OT-II mice were cultured in wells coated with OVA-bearing enantiomers, and 6 h later the production of cytokines IFN-γ and IL-2 were measured using flow cytometry. Lymphocytes stimulated with PBS or free OVA peptide were used as negative and positive controls, respectively.

[1] = test system: antigen-specific T cells in the draining lymph nodes; test: CD8 T cell responses after footpad immunization, tetramer staining of draining lymph nodes; format: in vivo, mice
C57BL/6 mice [2] = test: Subcutaneous immunization with OVA-KFE8 enantiomers, antibody responses by ELISA (Example 4); format: in vivo; details: for Dominant antibody isotype: plates coated with free OVA peptide; for Total IgG antibody response: s.c., boost day 28
CFSE-labeled OT-II cells = test: Footpad adoptive transfer of CFSE-labeled OT-II cells one week after immunization; format: in vivo, mice; details: cells transferred a week after footpad immunization, lymph nodes 24 h later
From the text: OVA-KFE8D Nanofibers Prolong Antigen Presentation at the Immunization Site. Previous studies from our lab have shown that peptide nanofiber vaccines (all L-amino acids) are cleared from the immunization site as early as 10 days after vaccination compared to depot forming adjuvants (Chesson, et al., 2014). To investigate whether the reduced proteolytic susceptibility of D-amino acid peptides prolongs antigen-presentation at the immunization site, we used adoptive transfer experiments where mice were injected at the immunization site with CFSElabeled OT-II cells (OVA-specific CD4+ T cells) and measured proliferation of the OT-II cells (in response to existing antigen) via the dilution of the CFSE label using flow cytometry. For these studies, immunizations and adoptive transfers were done in the footpads to maximize antigen depot-OT-II CD4+ T cell interaction and easy collection of draining lymph nodes. Mice were immunized with OVA-KFE8L or OVA-KFE8D nanofibers and a week later CFSE-labeled OT-II cells were transferred at the vaccination site. Twenty-four hours later, mice were sacrificed and draining lymph nodes were extracted.

C57BL/6 mice [3] = test: Subcutaneous immunization of mice, serum antibody titers and isotypes by ELISA (Example 1); format: in vivo
Procedure: To investigate how fibrillization affected the immunogenicity of OVA, C57BL/6 mice were immunized subcutaneously with the different peptides and boosted with additional peptide at 28 days (see methods). Serum was collected seven days after the boost, and levels of various immunoglobulins were measured.
Immunizations. […] Stock solutions were then diluted in sterile, endotoxin-free PBS to working concentrations. […] CFA-adjuvanted groups received the same volume and total peptide dose, prepared by emulsifying peptide/PBS solutions 1:1 in CFA. […] CFA groups were boosted in incomplete Freund's adjuvant (IFA). Mice receiving mixtures of Q11 and OVA received 100 nmol of each peptide in the first injection and 50 nmol of each in the second. Seven days after the boost, the mice were sacrificed, and sera and spleens were harvested.
Determination of antibody titers. High-binding ELISA plates (eBioscience) were coated with either 20 μg/mL peptide in PBS or PBS alone (for uncoated background subtraction) overnight at 4° C. […] To determine titers for each antiserum, background absorbance values from uncoated wells were subtracted from coated wells, and net absorbances were compared to cutoff values. The cutoff consisted of the mean plus three times the standard deviation of the negative control group (mice receiving OVA without adjuvant) for each corresponding dilution. Any sample dilutions having absorbances above this cutoff value were considered positive readings. The titer was considered as the highest dilution for which it and all lower dilutions had positive readings. If no positive dilutions were present the titer was considered to be 10^2. […] Antibody isotypes were analyzed similarly using a mouse monoclonal antibody kit containing goat anti-mouse IgG1, IgG2a, IgG2b, IgG3, and IgM (Sigma).

[4] = ranges: high and low values among three batches for each peptide
Procedure: Endotoxin levels of all formulations were tested using a Limulus Amebocyte Lystae (LAL) chromogenic end point assay (Lonza, USA).
To account for batch-to-batch variability three different sets of peptides were synthesized for immunizing mice.

[5] = design: species or system mice; details: mouse, in vivo
From the text: Peptide assemblies (stained brown and indicated by arrows) were found at the cortex of the lymph nodes by wk 1 and continued to persist up to wk 6. […] Although the mechanism of trafficking is unknown, co-staining for macrophages, dendritic cells, or B cells might provide further insights into the uptake and processing of these peptides in vivo.
Immunohistochemistry Freshly dissected skeletal muscle and inguinal lymph nodes were fixed overnight with 4% formaldehyde in phosphate-buffered saline (pH 7.2) and the tissue was processed and embedded in paraffin at the Human Tissue Resource Center (University of Chicago). The paraffin blocks were cut on a microtome (Leica, USA) into 4 μm thick sections and were deparaffinized with xylene and rehydrated with gradient ethanol. The sections were boiled in 10 mM sodium citrate solution (pH 6.0) for 10 min to retrieve the antigens and blocked with 5% BSA in PBS for 1 hr. The sections were then incubated with Horseradish Peroxidase Avidin D (Vector Laboratories, CA) for 3 hrs, and the biotin was visualized using a peroxidase substrate diaminobenzidine kit (Vector Laboratories, CA). The sections were also counterstained with Mayer's hematoxylin solution (Sigma-Aldrich, USA) for 10 mins. The slides were dehydrated with gradient ethanol and xylene and mounted with Permount Mounting Medium (Fisher Scientific, PA). Images were acquired using a Zeiss Axioskop at the Microscopy Core Facility (University of Chicago).

[6] = test system: KO mice lacking both the αβ and γδ receptors; test: Immunization of T cell receptor KO mice, antibody production; format: in vivo; details: over 6 wks
From the text: To confirm the necessity of T cells, KO mice lacking both the αβ and γδ receptors for CD4^+ T cells were immunized with OVA-Q11 along with wild type controls. […] The wild type control mice responded as expected. […] To ensure that the KO mice are capable of eliciting immune responses, they were immunized with a T-independent antigen, NP-Ficoll. […] This finding might not be surprising because OVA is a strong MHC class II peptide, containing both B and T cell determinants.

C57BL/6 mice [7] = test: Long-term serum antibody ELISA after immunization with Q11-linked peptides (Example 2); details: boost at wk 4
Procedure: The dose dependence and longevity of the antibody response to OVA-Q11 was further investigated and antibody responses against the malarial peptide epitope (NANP)3 coupled to Q11 were also characterized. Mice were immunized with two different doses of OVA-Q11 (100 nmol and 50 nmol), or 100 nmol of (NANP)3-Q11 and boosted with half the dose at wk 4. Mice were bled on a weekly basis up to wk 6, once at wk 8, and once every four weeks thereafter.
Animals and Immunizations Peptides were dissolved in sterile water (8 mM stock), incubated overnight at 4° C., and diluted in sterile PBS (2 mM working concentration) prior to immunizations. For the malaria peptide, (NANP)3-Q11, the formulations were incubated in PBS overnight to ensure complete fibril formation. […] Female C57BL/6 mice (6-8 weeks old, Taconic Farms, IN) were immunized subcutaneously with two 50 μL injections in the back, with each injection containing 100 nmol of peptide. […]
Determination of Antibody Production ELISA plates (eBioscience) were coated with 20 μg/mL of peptide or 0.5 μg/mL of whole protein in PBS overnight at 4° C. […] The reaction was stopped using 50 μL of 1 M phosphoric acid and 100 μL of the solution was transferred to fresh plates and absorbance values were read at 450 nm. Absorbance values of PBS (no antigen) coated wells were subtracted to account for background. […]

In the case of `CC(=O)N[C@H](Cc1ccccc1)C(=O)N[C@H](CCCCN)C(=O)N[C@H](Cc1ccccc1)C(=O)N[C@H](CCC(=O)O)C(=O)N[C@H](Cc1ccccc1)C(=O)N[C@H](CCCCN)C(=O)N[C@H](Cc1ccccc1)C(=O)N[C@H](CCC(=O)O)C(N)=O` [KFE8(D), Ac-^DF^DK^DF^DE^DF^DK^DF^DE-Am], the “Cytokine (IFN-γ, IL-2) production by OT-II cells” value (OT-II cells) is reported as “no cytokine production”.
In the case of `CC(=O)N[C@@H](Cc1ccccc1)C(=O)N[C@@H](CCCCN)C(=O)N[C@@H](Cc1ccccc1)C(=O)N[C@@H](CCC(=O)O)C(=O)N[C@@H](Cc1ccccc1)C(=O)N[C@@H](CCCCN)C(=O)N[C@@H](Cc1ccccc1)C(=O)N[C@@H](CCC(=O)O)C(N)=O` [KFE8(L), Ac-FKFEFKFE-Am], the “Cytokine (IFN-γ, IL-2) production by OT-II cells” value (OT-II cells) is reported as “no cytokine production”.
For “H2N-FKFEFKFEGGAAYSIINFEKL-Am (H-FKFEFKFEGGAAYSIINFEKL-NH2; not fully specified (some residues)) [SIN-KFE8(L)]”, the “Memory CD8 T cell response: antigen-specific T cells in lymph nodes, compared with the enantiomer” value ([1]; boost day 28, evaluated day 32) was “significantly higher numbers of antigen-specific T cells” and the “Effector and memory CD8+ T cell responses / tetramer+ CD8 T cells” value ([1]; mouse, in vivo) was “robust effector and memory CD8+ T cell responses; also recorded: higher numbers of tetramer+CD8 T cells”.
In the case of “H2N-ISQAVHAAHAEINEAGRSGSGFKFEFKFE-Am (H-ISQAVHAAHAEINEAGRSGSGFKFEFKFE-NH2; not fully specified (some residues)) [OVA-KFE8(L)]”, the “IFN-γ production by OT-II cells compared to wells coated with PBS or bare nanofibers” value (OT-II cells) is reported as “significantly higher levels”, the “IL-2 production by OT-II cells compared to wells coated with PBS or bare nanofibers” value (OT-II cells) is reported as “significantly higher levels” and the Dominant antibody isotype (C57BL/6 mice [2]) is reported as “IgG1”. The “Transferred OT-II cells that had proliferated (shift in CFSE intensity)” value (CFSE-labeled OT-II cells) was “only background levels of proliferation”.
In the case of “H2N-ISQAVHAAHAEINEAGRSGSG^DF^DK^DF^DE^DF^DK^DF^DE-Am (H-ISQAVHAAHAEINEAGRSGSG[dF][dK][dF][dE][dF][dK][dF][dE]-NH2; SMILES CC[C@H](C)[C@H](N)C(=O)N[C@@H](CO)C(=O)N[C@@H](CCC(N)=O)C(=O)N[C@@H](C)C(=O)N[C@H](C(=O)N[C@@H](Cc1c[nH]cn1)C(=O)N[C@@H](C)C(=O)N[C@@H](C)C(=O)N[C@@H](Cc1c[nH]cn1)C(=O)N[C@@H](C)C(=O)N[C@@H](CCC(=O)O)C(=O)N[C@H](C(=O)N[C@@H](CC(N)=O)C(=O)N[C@@H](CCC(=O)O)C(=O)N[C@@H](C)C(=O)NCC(=O)N[C@@H](CCCNC(=N)N)C(=O)N[C@@H](CO)C(=O)NCC(=O)N[C@@H](CO)C(=O)NCC(=O)N[C@H](Cc1ccccc1)C(=O)N[C@H](CCCCN)C(=O)N[C@H](Cc1ccccc1)C(=O)N[C@H](CCC(=O)O)C(=O)N[C@H](Cc1ccccc1)C(=O)N[C@H](CCCCN)C(=O)N[C@H](Cc1ccccc1)C(=O)N[C@H](CCC(=O)O)C(N)=O)[C@@H](C)CC)C(C)C) [OVA-KFE8(D)]”, the “Difference in IFN-γ and IL-2 production / CD4+ T cell activation between the enantiomers” value (OT-II cells) is reported as “no significant differences”, the “IFN-γ production by OT-II cells compared to wells coated with PBS or bare nanofibers” value (OT-II cells) is reported as “significantly higher levels” and the “IL-2 production by OT-II cells compared to wells coated with PBS or bare nanofibers” value (OT-II cells) is reported as “significantly higher levels”. The “Antibody isotype levels compared to OVA-KFE8(L)” value (C57BL/6 mice [2]; IgG2a, IgG2b, IgG3, IgM, IgA) was “Significantly higher levels of all antibody isotypes”, the “Anti-OVA antibodies on plates coated with free OVA peptide compared to OVA-KFE8(L)” value (C57BL/6 mice [2]; mouse, in vivo) was “higher levels of anti-OVA antibodies; also recorded: Significantly higher levels of antibodies” and the “IgG2a, IgM, and IgA production compared to OVA in ISA-720” value (C57BL/6 mice [2]; mouse, in vivo) was “significantly higher”. The “OVA-specific antibodies compared to OVA-KFE8(L), SGSG-KFE8 control wells subtracted” value (C57BL/6 mice [2]; mouse, in vivo) was “significantly higher levels of OVA-specific antibodies”, the Dominant antibody isotype (C57BL/6 mice [2]) was “IgG1” and the “Total IgG antibody response” value (C57BL/6 mice [2]) was “robust antibody responses”. The “Antibody levels compared to OVA-KFE8(L) nanofibers or OVA in ISA-720” value (C57BL/6 mice [2]; series of serum dilutions) was “Significantly higher levels of total IgG” and the “Antibody levels pre-boost compared to OVA-KFE8(L)” value (C57BL/6 mice [2]; week 2 up to the boost at week 4) was “significantly higher levels of antibodies”.
For “H2N-^DF^DK^DF^DE^DF^DK^DF^DEGGAAYSIINFEKL-Am [SIN-KFE8(D)]”, the “Effector CD8 T cell response: antigen-specific T cells in draining lymph nodes, compared with the enantiomer” value ([1]; footpad, boost day 5, evaluated day 8) was “significantly lower numbers of antigen-specific T cells”.
In the case of “H-ISQAVHAAHAEINEAGR-OH [OVA, H2N-ISQAVHAAHAEINEAGR-OH, reference compound]”, the “Total IgG response” value (C57BL/6 mice [3]; peptide in PBS without added adjuvant, s.c., boost day 28, serum 7 days after boost) is reported as “did not raise detectable IgG; also recorded: did not elicit a response”, the IgG titer (C57BL/6 mice [3]; without adjuvant, baseline level of detection) is reported as 10^2 and the “Total IgG antibody response” value (C57BL/6 mice [2]) is reported as “did not raise any detectable IgG”.
For “ISQAVHAAHAEINEAGRSGSGQQKFQFQFEQQ-NH2 (C-terminus assumed) [O-Q11]”, the Endotoxin [4] was 0.08-0.28 EU/mL, the “Localization of peptide assemblies” value [5] was “localized to the draining lymph nodes” and the “Persistence of peptide assemblies in lymph nodes” value [5] was ≤ 6 wk. The “Time at which peptide assemblies were found at the cortex of the lymph nodes” value [5] was ≤ 1 wk.
In the case of “NANPNANPNANPSGSGQQKFQFQFEQQ [(NANP)3-Q11]”, the “Antibody production in T cell receptor KO mice” value [6] is reported as “no antibody production”, the “Spike in antibody levels after the boost” value (C57BL/6 mice [7]; 100 nmol) is reported as “no spike in antibody levels” and the “Time for which antibodies were detectable” value (C57BL/6 mice [7]) is reported as “up to 28 wks”.
